The NIST ThermoML archive (doi:10.1021/acs.jced.7b00213)

Assay: xn = mol fraction of the nth substance listed
Conditions: Gas, Buoyancy - hydrostatic balance with magnetic suspension - two sinkers, x1 = 0.05362

[HH] [hydrogen] + O=C=O
Conditions | mass density [kg/m3]
273.15 K, 513.52 kPa | 9.74868
273.15 K, 1039.6 kPa | 20.4494
273.15 K, 1524.6 kPa | 31.0881
273.15 K, 2022.4 kPa | 42.9575
273.15 K, 2536.9 kPa | 56.521
273.15 K, 3036 kPa | 71.3532
293.15 K, 503.16 kPa | 8.83486
293.15 K, 1014.6 kPa | 18.2895
293.15 K, 1992 kPa | 37.9543
293.15 K, 3016.7 kPa | 61.5091
293.15 K, 4051.1 kPa | 89.7154
293.15 K, 4984.9 kPa | 121.352
323.15 K, 549.21 kPa | 8.70026
323.15 K, 1038.1 kPa | 16.7369
323.15 K, 2031.1 kPa | 34.0104
323.15 K, 3009.8 kPa | 52.4905
323.15 K, 4029.4 kPa | 73.5962
323.15 K, 5030.4 kPa | 96.6051
323.15 K, 5997.4 kPa | 121.561
